Results published in ChEMBL document CHEMBL1141751, “Latifolians A and B, novel JNK3 kinase inhibitors from the Papua New Guinean plant Gnetum latifolium” (J Nat Prod, 2005).

Target: Mitogen-activated protein kinase 10 (Homo sapiens, UniProt P53779)
Test: Inhibition of JNK3-induced transfer of [gamma33P]ATP to biotinylated ATF2 by scintillation proximity assay

Mitogen-activated protein kinase 10, sequence (P53779 whole entry): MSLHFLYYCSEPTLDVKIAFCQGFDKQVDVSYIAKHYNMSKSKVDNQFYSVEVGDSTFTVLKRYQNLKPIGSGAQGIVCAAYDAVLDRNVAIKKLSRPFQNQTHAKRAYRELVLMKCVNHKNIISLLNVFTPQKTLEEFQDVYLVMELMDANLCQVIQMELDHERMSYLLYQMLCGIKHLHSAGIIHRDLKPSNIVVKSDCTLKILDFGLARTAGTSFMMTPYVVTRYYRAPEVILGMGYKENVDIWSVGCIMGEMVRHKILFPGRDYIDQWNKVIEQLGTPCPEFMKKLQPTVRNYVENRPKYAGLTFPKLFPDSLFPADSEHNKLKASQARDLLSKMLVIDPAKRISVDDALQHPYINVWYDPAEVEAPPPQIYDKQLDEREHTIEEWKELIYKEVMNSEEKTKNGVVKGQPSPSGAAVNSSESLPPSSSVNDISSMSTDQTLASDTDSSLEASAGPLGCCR

| IC50 [µM] | Compound |
| --- | --- |
| 10 | COc1cc2c(cc1O)C[C@@H]1c3cc(O)c(O)cc3C[C@H]3c4cc(O)c(O)cc4CC[N@@+]213 [LATIFOLIAN B] |
| 13 | Oc1cc2c(cc1O)[C@H]1Cc3cc(O)c(O)cc3[N@+]13CCc1cc(O)c(O)cc1[C@@H]3C2 [LATIFOLIAN A] |
